{"source": "patent US10335382B2", "about": "“Use of hydrogen sulfide synthesis inhibitors for cancer therapy” (THE BOARD OF REGENTS OF THE UNIVERSITY OF TEXAS SYSTEM, priority 2013, dated 2019)", "key": {"CBS [1]": {"molecular_target": "T1, CBS (Homo sapiens, UniProt P35520)", "T1 sequence (P35520 1-551)": "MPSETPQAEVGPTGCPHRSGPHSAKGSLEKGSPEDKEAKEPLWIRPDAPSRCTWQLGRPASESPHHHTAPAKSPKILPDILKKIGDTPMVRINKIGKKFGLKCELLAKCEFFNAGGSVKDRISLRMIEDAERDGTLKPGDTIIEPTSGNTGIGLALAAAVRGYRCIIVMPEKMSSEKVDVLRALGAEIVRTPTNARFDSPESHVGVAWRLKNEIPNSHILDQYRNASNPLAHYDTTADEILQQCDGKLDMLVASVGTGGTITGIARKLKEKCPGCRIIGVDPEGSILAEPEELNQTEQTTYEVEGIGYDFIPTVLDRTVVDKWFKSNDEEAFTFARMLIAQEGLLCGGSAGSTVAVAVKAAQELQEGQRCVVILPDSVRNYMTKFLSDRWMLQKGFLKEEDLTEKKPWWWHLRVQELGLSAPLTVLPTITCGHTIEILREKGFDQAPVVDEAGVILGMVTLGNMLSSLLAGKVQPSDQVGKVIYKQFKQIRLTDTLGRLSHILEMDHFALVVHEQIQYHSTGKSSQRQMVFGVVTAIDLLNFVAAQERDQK", "set-up": "These studies used full-length human CBS enzyme; made in house; host or cells: E. coli BL21 (DE3) Codon Plus", "settings": "cited from earlier work"}, "HCT116 colon cancer cell": {"test_system": "HCT116 colon cancer cell", "settings": "cell-based assays (Szabo et al. 2013); cited from earlier work"}, "CBS [2]": {"molecular_target": "T1, CBS", "assay": "CBS inhibitor screen: H2S production by recombinant CBS (methylene blue assay)", "assay_type": "biochemical", "set-up": "These studies used full-length human CBS enzyme; made in house; host or cells: E. coli BL21 (DE3) Codon Plus", "settings": "100 μM; homocysteine-induced H2S production; LOPAC library screen; read-out: Inhibition of CBS activity at 100 μM", "excerpt": "Studies have been performed characterizing, in detail, the specificity and selectivity of all known H2S biosynthesis inhibitors, using recombinant CBS and CSE enzymes. These studies used full-length human CBS enzyme, and a colorimetric ‘capture’ reaction of the H2S produced by these enzymes, an assay generally known as the ‘methylene blue assay’. This assay is used in a 96-well plate format, as well as in combination with a second screening method based on a fluorescent dye.\nHuman recombinant CBS is expressed as described (Asimakopoulou et al, (2013) Br J Pharmacol. 169(4):922-32). A library of pharmacologically active compounds (e.g., LOPAC library, Sigma; 1240 compounds) is tested on homocysteine-induced H2S production. In certain aspects the assay is in a 96-well format. In certain aspects H2S production is measured by the methylene blue assay (Asimakopoulou et al., (2013) Br J Pharmacol. 169(4):922-32).\nPlasmids, bacterial strains and media. E. coli BL21 (DE3) Codon Plus is used as a host strain to express recombinant human CSE or CBS. CSE cDNA was cloned into pGEX-4T3 and CBS into pGEX-Kg to create N-terminal GSH-S-transferase (GST) fusion proteins. The expression vectors were transformed and plated on LB-agar plates, supplemented with ampicillin (100 μg/mL).\nThe expression and purification of CSE and CBS is performed as described previously with modifications (Frank et al., (2008) Arch Biochem Biophys 470:64-72; Huang et al., (2009) J Mol Biol 396: 708-18). Briefly, BL21(DE3) Codon Plus cells containing either the expression vector pGEX-4T3/GST-CSE or pGEX-Kg/GST-CBS are grown at 37° C. and 180 r.p.m. in LB broth medium containing 100 μg/mL ampicillin to an absorption of 0.6-0.8 at 600 nm. In addition, 0.3 mM d-ALA is added to the culture containing pGEX-Kg/GST-CBS. Then protein expression is induced by addition of 0.1 mM IPTG. Cells containing pGEX-4T-3/GST-CSE are incubated overnight at 18° C., whereas cells containing pGEXKg/GST-CBS are incubated overnight at 30° C. Culture is then centrifuged at 4° C. and 5000×g for 10 min and the cell pellet was resuspended in PBS (140 mM NaCl, 2.7 mM KCl, 10 mM Na2HPO4, 1.8 mM KH2PO4, pH 7.8) and stored at −20° C. overnight. After thawing, the suspension is sonicated in lysis buffer containing PBS and protease inhibitor cocktail for GST-CSE and PBS, 5 mM DTT, 1% Triton X-100, […] and protease inhibitor cocktail for GST-CBS. After centrifugation at 4° C. for 30 min, the soluble fraction containing either the GST-CSE or the GST-CBS recombinant protein is loaded onto a GSTrap FF 1 mL affinity column that has been equilibrated with binding buffer PBS. The column was consecutively washed with five column volumes of binding buffer. Proteins attached to the column, including GST-CSE or GST-CBS recombinant proteins, are eluted with five column volumes of elution buffer (50 mM Tris-HCl, 10 mM reduced GSH, pH 8.0) and then dialysed and concentrated in 10 mM sodium phosphate buffer pH 8.2 and DTT 1 mM. The purity of the recombinant enzymes was checked by SDS-PAGE on 12% polyacrylamide gels after staining of protein bands with Coomassie Blue R-250. Protein concentration was determined using the DC protein assay kit.\nH2S determination is performed according to Stipanuk and Beck ((1982) Biochem J 206:267-77) with some modifications. In the case of the CSE enzyme, an assay consist of a 100 μL reaction mixture containing 5 μg of the purified CSE enzyme, 0.01 mM PLP, 1 mM L-cys, and 50 mM sodium phosphate buffer pH 8.2. For the CBS enzyme, the reaction mixture contains the same as for the CSE plus 1 mM homocysteine. The inhibitors can be added to the reaction before L-cys is added to the solution. Reactions are initiated by transferring the reaction solutions from ice to a 37° C. shaking water bath. After incubation at 37° C. the reaction is terminated by adding 1% ZnAc to trap H2S followed by 10% TCA to precipitate proteins. […]"}}, "data": [{"smiles": "NOCC(=O)O", "note": "[AOAA, aminooxyacetic acid]", "values": [{"measurement": "concentrations exerting inhibitory effects on human recombinant CBS", "setting": "CBS [1]", "result": "low micromolar concentrations"}, {"measurement": "concentrations at which antiproliferative effects and effects on cellular energetics manifest in cell-based assays", "setting": "HCT116 colon cancer cell", "result": "higher (millimolar) concentrations"}, {"measurement": "inhibition at 100 µM", "setting": "CBS [2]", "result": 98, "unit": "%"}]}]}
